In the first experiment the test system is mature osteoclasts on bone slices. In words: ruffled membrane formation / V-ATPase trafficking in mature osteoclasts on bone slices (anti-E subunit antibody). As to conditions: concentration not given. It is filed as cell-based. As to the method: FIG. 7 depicts that enoxacin (10 μM) blocks ruffled membrane formation. Mature osteoclasts on bone slices were treated with enoxacin or vehicle control for 3 days, then fixed and labeled with an anti-E subunit antibody. […] Arrows point to representative osteoclasts; The present inventors also tested the effects of enoxacin on osteoclasts that were already mature and loaded onto bone slices. In this experiment, mature osteoclasts on bone slices were treated with enoxacin or vehicle control for 3 days, then fixed and labeled with an anti-E subunit antibody. Control osteoclasts produced many ruffled membranes.
Turning to `O=C(C[N+]12CN3CN(CN(C3)C1)C2)c1ccc(Cl)cc1.[I-]` [Binhib 2, 3,5,7-triaza-1-azoniatricyclo[3.3.1.13,7]decane, 1-[2-(4-chlorophenyl)-2-oxoethyl]-iodide], the ruffled membrane formation entry is “blocks”.

In the next experiment the target is T1, interaction between recombinantly-expressed B2 subunit and pure rabbit muscle F-actin (Homo sapiens, UniProt P21281).
T1 construct: made in house
T1 sequence (P21281 whole entry): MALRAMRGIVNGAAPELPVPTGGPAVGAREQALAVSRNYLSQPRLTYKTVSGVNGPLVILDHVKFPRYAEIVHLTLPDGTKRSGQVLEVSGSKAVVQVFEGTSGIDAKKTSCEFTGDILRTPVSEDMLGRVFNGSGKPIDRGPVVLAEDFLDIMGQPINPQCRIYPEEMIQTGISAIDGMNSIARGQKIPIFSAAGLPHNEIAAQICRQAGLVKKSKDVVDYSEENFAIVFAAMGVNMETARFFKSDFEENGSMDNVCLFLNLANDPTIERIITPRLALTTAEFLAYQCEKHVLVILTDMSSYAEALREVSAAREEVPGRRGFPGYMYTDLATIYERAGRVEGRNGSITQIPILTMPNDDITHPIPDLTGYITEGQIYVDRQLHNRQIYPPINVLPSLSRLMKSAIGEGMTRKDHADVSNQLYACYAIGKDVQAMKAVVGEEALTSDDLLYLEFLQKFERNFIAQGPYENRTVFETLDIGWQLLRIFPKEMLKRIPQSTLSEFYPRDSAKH
The experiment in a line: pelleting assay of B subunit binding to F-actin.
Details: not given
As to the method:
Twenty-one small molecules are tested for their ability to block interaction between recombinantly-expressed B2 subunit and pure rabbit muscle F-actin.
Recombinant B subunit (1 μM) plus/minus F-actin (2 μM)) plus/minus 100 uM inhibitor compounds were incubated for 10 minutes in 20 mM Tris/HCl (pH 7.5), 100 mM NaCl, 1 mM MgCl2, 0.2 mM CaCl2, 0.5 mM ATP, 0.2 mM DTT, then subjected to ultracentrifugation at 180,000×g for 45 min. Supernatants and pellets were collected in SDS-PAGE sample buffer, separated by SDS-PAGE, stained with Coomassie Blue, and densitometry was performed using a Flurchem 8000 (Alpha Innotech, San Leandro Calif.).
The percent inhibition was determined by densitometry of SDS-PAGE gels. The raw densitometric number obtained of the recombinant B subunit band that was pelleted with F-actin, but with no compound present, represented 0% inhibition. The amount of the raw densitometric number of the amount of recombinant B subunit that pelleted with no actin present, but with compound, represented 100% inhibition. The amount of recombinant B subunit that pelleted with actin and the compound being tested was placed as a percentage assuming a linear response.
With `O=C(C[N+]12CN3CN(CN(C3)C1)C2)c1ccc(Cl)cc1.[I-]` [Binhib 2, 3,5,7-triaza-1-azoniatricyclo[3.3.1.13,7]decane, 1-[2-(4-chlorophenyl)-2-oxoethyl]-iodide], the “B subunit actin interactions in vitro” value is “inhibits”.
For orientation: inhibition means the percentage by which the read-out fell short of the control. With `CN1N(C)C12CCC1(C)C(CCC3C1CCC1(C)C3CCC1(C)O)C2` (stereo not shown) [Binhib 3, 1′,2′,10,13,17-pentamethylhexadecahydrospiro[cyclopenta[a]phenanthrene-3,3′-diaziridin]-17-ol], the inhibition at 100 µM amounted to 7%.

The experiment is the same for the next values; noted with them: 100 uM inhibitor compound; recombinant B subunit 1 μM, F-actin 2 μM; densitometry of SDS-PAGE gels.
The term % inhibition denotes the change of the read-out against control, counted positive when it falls. “2,4-diamino-5-(4-((2-aminoethyl)amino)-3-(hydroxy(oxido)amino)phenyl)-6-ethylpyrimidine [Binhib 33]”: the “% inhibition” value is recorded as 1%.
Turning to “2-((4-methyl-1-piperazinyl)methyl)-15-indeno[1,2,3-de]quinazolin-1-ol [Binhib 15]”, the “% inhibition” value is listed as 0%.
For `Clc1cc(Cl)c(C[N+]23CN4CN(CN(C4)C2)C3)cc1Cl.[Cl-]` [Binhib 1, {3,5,7-Triaza-1-azoniatricyclo[3.3.1.13,7]decane}{1-[(2,}4,5-trichlorophenyl)methyl]-, chloride], the “% inhibition” value was found to be 5%.
`Brc1ccc(C[N+]23CN4CN(CN(C4)C2)C3)cc1.[Br-]` [Binhib 9, 3-(5,7-Triaza-1-azoniatricyclo[3.3.1.13,7]decane) (1-[(4-bromophenyl)methyl])bromide]: the “% inhibition” value came out at 21%.
As to `ON=C(C[N+]12CN3CN(CN(C3)C1)C2)c1ccc(I)cc1` [Binhib 10, 1-(4-iodophenyl)-2-(15,3,5,7-tetraazatricyclo[3.3.1.1˜3,7˜]dec-1-yl)ethanone oxime], the “% inhibition” value worked out at 3%.
On to `BrC=C(Br)C[N+]12CN3CN(CN(C3)C1)C2` [Binhib 18, 1-(2,3-dibromo-2-propenyl)-15,3,5,7-tetraazatricyclo[3.3.1.1˜3,7˜]decane], for which the “% inhibition” value turned out to be 2%.
For `CC(C)Cc1ccc(C[N+]23CN4CN(CN(C4)C2)C3)cc1` [Binhib 20, 1-(4-isobutylbenzyl)-15,3,5,7-tetraazatricyclo[3.3.1.1˜3,7˜]decane], the “% inhibition” value is given as 5%.
For `O=C(C[N+]12CN3CN(CN(C3)C1)C2)c1ccc(Br)cc1` [Binhib 24, 1-(4-bromophenyl)-2-(15,3,5,7-tetraazatricyclo[3.3.1.1˜3,7˜]dec-1-yl)ethanone], the “% inhibition” value came to 13%.
Turning to `Cc1nc2ccccc2cc1C[N+]12CN3CN(CN(C3)C1)C2` [Binhib 30, 1-((2-methyl-3-quinolinyl)methyl)-15,3,5,7-tetraazatricyclo[3.3.1.1˜3,7˜]decane], the “% inhibition” value is listed as 4%.
For the compound `COC(=O)C1CC23CCCN4CCC5(c6cccc(OC)c6N(C=O)C15CC2)C43` (stereo not shown) [Binhib 35, methyl 1-formyl-17-methoxyaspidofractinine-3-carboxylate], the “% inhibition” value is 4%.
As to `O=C(C[N+]12CN3CN(CN(C3)C1)C2)c1ccc2ccccc2c1` [Binhib 36, 1-(2-naphthyl)-2-(15,3,5,7-tetraazatricyclo[3.3.1.1˜3,7˜]dec-1-yl)ethanone], the “% inhibition” value was determined as 0%.
As to `COc1ccc(C(=O)C[N+]23CN4CN(CN(C4)C2)C3)cc1` [Binhib 41, 1-(4-methoxyphenyl)-2-(15,3,5,7-tetraazatricyclo[3.3.1.1˜3,7˜]dec-1-yl)ethanone], the “% inhibition” value is 4%.

The same experiment, now with this note: 100 uM inhibitor compound; recombinant B subunit 1 μM, F-actin 2 μM; densitometry of SDS-PAGE gels; read-out: % inhibition.
Regarding `O=C(C[N+]12CN3CN(CN(C3)C1)C2)c1ccc(Cl)cc1.[I-]` [Binhib 2, 3,5,7-triaza-1-azoniatricyclo[3.3.1.13,7]decane, 1-[2-(4-chlorophenyl)-2-oxoethyl]-iodide], the inhibition at 100 µM turned out to be 65%.
Regarding `CCOC(=O)C(Cc1c[nH]c2ccccc12)NCCN` (stereo not shown) [Binhib 5, ethyl 2-((2-aminoethyl)amino)-3-(1H-indol-3-yl)propanoate], the inhibition at 100 µM turned out to be 0%.
Consider `COc1cccc(CN2CCN(N)CC2)c1` [Binhib 17, 4-(3-methoxybenzyl)-1-piperazinamine], for which the inhibition at 100 µM worked out at 0%.
For `C=C1C23C(CCCC2NC)CCC2(C)C4C(C(C)=O)C(O)CC4(C)CCC123` (stereo not shown) [Binhib 26, 1-(2-hydroxy-3a,12a-dimethyl-7-(methylamino)-6-methylenehexadecahydro-cyclopenta[a]cyclopropa[e]phenanthren-1-yl)ethanone], the inhibition at 100 µM turned out to be 0%.
Take `Cn1c(=O)c2nc(SSc3nc4c(=O)n(C)c(=O)n(C)c4[nH]3)[nH]c2n(C)c1=O` [Binhib 31, 8,8′-disulfanediylbis(1,3-dimethyl-1H-purine-2,6(3H,9H)-dione)]: the inhibition at 100 µM came to 2%.
For `S=C(S)NCCN1CCNCC1` [Binhib 38, 2-(1-piperazinyl)ethylcarbamodithioic acid], the inhibition at 100 µM was 3%.

The test system of a further experiment is osteoclast formation in calcitriol-stimulated mouse marrow cultures. The experiment in a line: osteoclastogenesis stimulated by calcitriol in mouse marrow cultures. It is filed as cell-based. Particulars: concentration not given. As for the experimental part:
Enoxacin and Binhib 2 were then tested for their effects on osteoclastogenesis stimulated by calcitriol in mouse marrow cultures. The mixed cultures represent a model for the complex interactions that regulate bone resorption in vivo. […] Osteoclast and osteoblast-containing mouse bone marrow cultures are obtained as above described. 4-6-week-old Swiss-Webster mice (Harlan, Indianapolis, Ind.) are sacrificed by cervical dislocation. Femurs and tibias are dissected free of adherent tissue; the marrow is expelled by cutting both bone ends and flushing the marrow cavity with MEM D10 using a 25-gauge needle. The marrow cells are washed twice and plated in 6 well plates at a concentration of 1×10^6 nucleated cells/cm^2 in MEM D1 0 containing 10 nM calcitriol. Cultures are fed on the third and fifth day of culture by replacing half of the medium with fresh medium containing calcitriol. Cultures are treated with enoxacin at 10 μM or vehicle control on Day 1, and when the media is refreshed.
For `O=C(C[N+]12CN3CN(CN(C3)C1)C2)c1ccc(Cl)cc1.[I-]` [Binhib 2, 3,5,7-triaza-1-azoniatricyclo[3.3.1.13,7]decane, 1-[2-(4-chlorophenyl)-2-oxoethyl]-iodide], the osteoclast formation entry is “without affecting”.
